Assay results published in ChEMBL document CHEMBL1201862, “PubChem BioAssay data set” (2004).
Activity calls are given as the source filed them.

Key:
[1] = test system: H9c2; assay: cells; assay type: functional, cell-based; conditions: Rattus norvegicus, H9c2, Myocardium;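 also: confirmatory concentration-response retest of ultra-high-throughput screening hits for modulation of myocardial damage; cell death induced by hydrogen peroxide oxidative stress; compound pretreatment for 60 min then peroxide exposure for 2 h; potency is for protecting the cells against peroxide damage rather than for killing them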
[2] = target: Melanocortin receptor 4 (Homo sapiens, UniProt P32245); assay type: functional, cell-based;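 also: Cell-based assay with luminescence read-out, confirmatory dose-response testing for agonist activity of biased ligands at MC4R; human U2OS cells with tagged receptor and beta-arrestin; potency of agonists that increase receptor coupling to beta-arrestin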
Melanocortin receptor 4, sequence (P32245 whole entry): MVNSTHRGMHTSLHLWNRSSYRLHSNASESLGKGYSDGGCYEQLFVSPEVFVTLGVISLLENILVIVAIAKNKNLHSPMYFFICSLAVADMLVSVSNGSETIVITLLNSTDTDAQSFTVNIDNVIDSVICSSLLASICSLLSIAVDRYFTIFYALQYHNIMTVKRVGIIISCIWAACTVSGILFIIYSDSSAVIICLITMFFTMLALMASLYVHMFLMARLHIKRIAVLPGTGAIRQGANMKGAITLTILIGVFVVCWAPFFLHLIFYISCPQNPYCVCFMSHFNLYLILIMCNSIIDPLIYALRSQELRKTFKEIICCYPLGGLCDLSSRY

[3] = target: Low molecular weight phosphotyrosine protein phosphatase (Homo sapiens, UniProt P24666); assay type: functional; conditions: read-out: IC50_Mean;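 also: Dose-response confirmation assay measuring inhibition of LMPTP enzyme activity by fluorescence intensity read-out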
Low molecular weight phosphotyrosine protein phosphatase, sequence (P24666 whole entry): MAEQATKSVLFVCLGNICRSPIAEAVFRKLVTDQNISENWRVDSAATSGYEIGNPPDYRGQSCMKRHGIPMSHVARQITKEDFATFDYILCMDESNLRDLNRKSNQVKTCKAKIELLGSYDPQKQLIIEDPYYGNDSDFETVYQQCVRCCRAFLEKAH

[4] = target: T1, Polyadenylate-binding protein 1 (Homo sapiens, UniProt P11940); assay: PABP1 MLLE–PAM2 binding inhibitor potency, dose response, biochemical, fluorescence polarization, FITC-PAM2 peptide (AID 602259); assay type: functional; conditions: read-out: IC50_Mean
T1 sequence (P11940 whole entry): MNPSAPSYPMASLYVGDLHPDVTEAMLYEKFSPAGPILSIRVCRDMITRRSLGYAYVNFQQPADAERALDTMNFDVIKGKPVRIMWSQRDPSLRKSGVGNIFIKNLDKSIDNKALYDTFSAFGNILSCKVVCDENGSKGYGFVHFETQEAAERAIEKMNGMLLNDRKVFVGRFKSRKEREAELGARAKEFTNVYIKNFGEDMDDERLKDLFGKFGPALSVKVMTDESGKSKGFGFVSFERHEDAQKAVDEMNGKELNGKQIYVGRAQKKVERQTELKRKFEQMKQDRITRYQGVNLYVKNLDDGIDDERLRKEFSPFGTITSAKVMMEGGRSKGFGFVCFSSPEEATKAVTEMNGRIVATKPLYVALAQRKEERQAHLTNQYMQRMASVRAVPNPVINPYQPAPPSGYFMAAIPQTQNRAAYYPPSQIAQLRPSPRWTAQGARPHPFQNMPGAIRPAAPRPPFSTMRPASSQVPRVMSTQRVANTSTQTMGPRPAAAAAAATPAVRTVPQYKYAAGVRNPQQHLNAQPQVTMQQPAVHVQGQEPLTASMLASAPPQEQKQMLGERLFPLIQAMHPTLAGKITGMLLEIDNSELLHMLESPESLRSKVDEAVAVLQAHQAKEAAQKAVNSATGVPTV

[5] = target: T1, Polyadenylate-binding protein 1; assay: PABP1 MLLE–PAM2 interaction inhibitors, dose response, miRNA deadenylation inhibitor project, biochemical, fluorescence polarization, Cy5-PAM2 peptide, secondary (AID 602260); assay type: functional; conditions: read-out: IC50_Mean
[6] = target: Lethal factor (Bacillus anthracis, UniProt P15917); assay: High-throughput multiplex microsphere dose response for inhibitors of toxin protease, specifically Lethal Factor protease, compounds from Cherry Pick 02.; assay type: functional; conditions: read-out: EC50_MICROM
[7] = target: T2, Apoptotic protease-activating factor 1 (Homo sapiens, UniProt O14727); assay type: functional
T2 sequence (O14727 whole entry): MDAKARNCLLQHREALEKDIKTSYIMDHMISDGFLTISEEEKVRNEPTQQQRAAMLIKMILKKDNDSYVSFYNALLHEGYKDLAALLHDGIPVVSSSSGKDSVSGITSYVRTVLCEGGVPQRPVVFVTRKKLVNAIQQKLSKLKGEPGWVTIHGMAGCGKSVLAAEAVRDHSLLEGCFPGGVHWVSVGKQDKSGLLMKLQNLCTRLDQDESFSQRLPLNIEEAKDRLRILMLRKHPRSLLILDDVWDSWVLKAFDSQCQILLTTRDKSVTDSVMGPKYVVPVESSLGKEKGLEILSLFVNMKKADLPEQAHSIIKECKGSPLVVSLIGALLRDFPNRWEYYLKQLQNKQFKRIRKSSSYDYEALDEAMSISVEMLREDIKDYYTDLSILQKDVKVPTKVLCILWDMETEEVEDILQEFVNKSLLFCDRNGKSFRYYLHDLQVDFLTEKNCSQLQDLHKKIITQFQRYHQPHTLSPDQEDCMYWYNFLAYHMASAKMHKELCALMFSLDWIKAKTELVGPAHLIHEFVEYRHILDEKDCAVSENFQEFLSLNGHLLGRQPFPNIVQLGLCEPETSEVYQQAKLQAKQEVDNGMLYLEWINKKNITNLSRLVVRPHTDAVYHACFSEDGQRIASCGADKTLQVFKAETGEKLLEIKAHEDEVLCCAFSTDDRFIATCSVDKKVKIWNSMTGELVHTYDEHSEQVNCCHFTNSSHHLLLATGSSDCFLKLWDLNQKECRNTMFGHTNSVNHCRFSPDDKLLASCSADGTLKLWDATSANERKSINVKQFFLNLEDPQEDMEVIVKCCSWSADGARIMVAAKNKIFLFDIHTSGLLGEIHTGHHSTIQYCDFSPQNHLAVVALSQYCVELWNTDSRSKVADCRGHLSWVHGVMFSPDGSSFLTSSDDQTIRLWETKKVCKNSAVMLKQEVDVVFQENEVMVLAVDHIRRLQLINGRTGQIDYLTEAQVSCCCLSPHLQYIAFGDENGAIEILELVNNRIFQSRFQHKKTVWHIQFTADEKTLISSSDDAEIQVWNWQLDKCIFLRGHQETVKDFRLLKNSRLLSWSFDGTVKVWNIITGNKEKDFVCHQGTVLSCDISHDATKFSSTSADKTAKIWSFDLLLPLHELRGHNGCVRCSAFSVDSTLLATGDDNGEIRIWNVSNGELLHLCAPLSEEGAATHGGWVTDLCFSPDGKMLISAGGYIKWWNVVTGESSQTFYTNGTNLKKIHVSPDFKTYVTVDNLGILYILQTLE

[8] = target: T3, Insulin-degrading enzyme (Homo sapiens, UniProt P14735); assay: activators of endogenous IDE in HEK cells, dose response, cell-based, fluorescence polarization (AID 588439); assay type: functional
T3 sequence (P14735 whole entry): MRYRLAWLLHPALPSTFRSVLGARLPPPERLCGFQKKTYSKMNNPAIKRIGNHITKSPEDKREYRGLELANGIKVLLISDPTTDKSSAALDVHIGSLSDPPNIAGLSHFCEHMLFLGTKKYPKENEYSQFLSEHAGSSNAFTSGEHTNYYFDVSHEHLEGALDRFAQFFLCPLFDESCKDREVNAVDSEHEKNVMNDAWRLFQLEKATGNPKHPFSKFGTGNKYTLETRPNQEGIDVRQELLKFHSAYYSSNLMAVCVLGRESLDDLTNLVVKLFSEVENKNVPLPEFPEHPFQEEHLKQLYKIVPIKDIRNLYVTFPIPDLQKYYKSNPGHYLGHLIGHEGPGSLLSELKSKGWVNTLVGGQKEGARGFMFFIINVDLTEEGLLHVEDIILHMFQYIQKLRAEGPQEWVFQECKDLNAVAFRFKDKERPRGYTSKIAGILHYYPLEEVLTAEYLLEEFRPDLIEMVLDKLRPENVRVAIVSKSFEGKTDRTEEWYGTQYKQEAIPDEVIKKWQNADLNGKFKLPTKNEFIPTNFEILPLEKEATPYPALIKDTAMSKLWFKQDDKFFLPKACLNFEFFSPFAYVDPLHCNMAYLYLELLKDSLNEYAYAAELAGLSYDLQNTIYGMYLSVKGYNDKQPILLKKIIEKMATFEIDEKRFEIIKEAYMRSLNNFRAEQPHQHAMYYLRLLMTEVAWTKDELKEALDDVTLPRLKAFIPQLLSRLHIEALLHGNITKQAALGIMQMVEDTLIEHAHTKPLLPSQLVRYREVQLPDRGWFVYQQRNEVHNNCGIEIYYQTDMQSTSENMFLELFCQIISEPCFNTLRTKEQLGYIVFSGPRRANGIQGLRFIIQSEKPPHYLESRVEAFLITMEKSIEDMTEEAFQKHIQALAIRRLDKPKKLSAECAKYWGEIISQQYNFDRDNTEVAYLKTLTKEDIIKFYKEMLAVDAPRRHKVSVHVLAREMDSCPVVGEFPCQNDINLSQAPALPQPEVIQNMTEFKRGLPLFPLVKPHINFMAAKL

[9] = test system: HEK293; assay: optical interference in Abeta FP readout, dose response, artefact control for IDE activator project, biochemical, fluorescence polarization (AID 588442); assay type: functional, cell-based; conditions: Homo sapiens
[10] = target: T4, Ubiquitin-conjugating enzyme E2 N (Homo sapiens, UniProt P61088); assay type: functional
T4 sequence (P61088 whole entry): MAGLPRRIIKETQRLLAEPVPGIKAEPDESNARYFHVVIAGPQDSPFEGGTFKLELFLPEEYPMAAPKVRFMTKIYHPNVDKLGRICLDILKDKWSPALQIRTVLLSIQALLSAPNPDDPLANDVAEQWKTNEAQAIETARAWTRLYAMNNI

[11] = target: T5, Bcl-2-related protein A1 (Mus musculus, UniProt Q07440); assay type: functional;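 also: confirmatory dose–response counterscreen on Bfl-1, used to check hits from a UBC13 polyubiquitin inhibitor campaign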
T5 sequence (Q07440 whole entry): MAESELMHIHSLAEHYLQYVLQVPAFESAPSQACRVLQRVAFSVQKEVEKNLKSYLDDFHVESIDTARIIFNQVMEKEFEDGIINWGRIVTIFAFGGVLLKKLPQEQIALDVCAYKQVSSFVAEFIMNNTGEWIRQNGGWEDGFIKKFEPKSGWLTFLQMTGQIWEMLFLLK

[12] = target: T4, Ubiquitin-conjugating enzyme E2 N; assay type: functional; remark: listed apart in the source
[13] = test system: HEK293; assay: HEK cell cytotoxicity by LDH release, dose response, cytotoxicity control for IDE activator project, fluorescence, HEK cells (AID 588440); assay type: functional, cell-based; conditions: Homo sapiens;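 also: cytotoxicity by LDH release measuring loss of membrane integrity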
[14] = target: T3, Insulin-degrading enzyme; assay: activators of recombinant IDE enzyme, dose response, counter-screen for IDE activator project, biochemical, fluorescence polarization (AID 588681)
[15] = target: Mitochondrial peptide methionine sulfoxide reductase (Bos taurus, UniProt P54149); assay type: functional;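 also: absorbance read-out, biochemical high-throughput dose-response screen for MsrA inhibitors, confirmatory; recombinant bovine MsrA coupled to E. coli TrxB with NADPH and selenocystamine; potency is for inhibitors of MsrA activity on DMSO substrate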
Mitochondrial peptide methionine sulfoxide reductase, sequence (P54149 whole entry): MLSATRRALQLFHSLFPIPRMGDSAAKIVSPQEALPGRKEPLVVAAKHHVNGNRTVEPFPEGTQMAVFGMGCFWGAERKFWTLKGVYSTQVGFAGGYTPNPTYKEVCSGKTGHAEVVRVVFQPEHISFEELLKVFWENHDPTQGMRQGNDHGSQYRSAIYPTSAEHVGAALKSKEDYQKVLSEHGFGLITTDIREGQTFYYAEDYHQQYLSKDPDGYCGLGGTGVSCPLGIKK

[16] = target: T6, Streptokinase A (Streptococcus pyogenes serotype M1, UniProt P10520); assay: S. pyogenes streptokinase expression inhibitors, potency, dose response, plasminogen activation absorbance, OD405 (AID 1914); assay type: functional, Streptococcus pyogenes M1 GAS;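 also: secreted streptokinase activity via plasminogen activation per viability signal from cell pellet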
T6 sequence (P10520 whole entry): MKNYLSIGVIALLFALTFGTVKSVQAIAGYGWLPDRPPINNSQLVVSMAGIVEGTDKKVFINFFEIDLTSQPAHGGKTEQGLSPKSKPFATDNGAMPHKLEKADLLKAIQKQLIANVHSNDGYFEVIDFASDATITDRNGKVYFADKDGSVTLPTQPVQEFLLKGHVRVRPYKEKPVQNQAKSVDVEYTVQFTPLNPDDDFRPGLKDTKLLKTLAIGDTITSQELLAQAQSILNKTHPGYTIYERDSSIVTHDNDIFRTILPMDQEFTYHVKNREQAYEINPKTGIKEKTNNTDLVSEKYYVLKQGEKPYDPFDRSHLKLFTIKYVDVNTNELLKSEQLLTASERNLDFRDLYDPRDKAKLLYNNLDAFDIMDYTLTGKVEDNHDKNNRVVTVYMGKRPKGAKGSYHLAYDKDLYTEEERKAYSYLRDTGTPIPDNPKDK

[17] = inhibitors of firefly luciferase expression or activity, dose response, H4 neuroglioma cells, luminescence (AID 1990); assay type: functional, cell-based
[18] = test system: INS1; assay: beta cell apoptosis inhibitors, cytokine rescue, dose response, luminescence, retest (AID 449756); assay type: functional, cell-based; conditions: Rattus norvegicus;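 also: cell death triggered by IL-1 beta plus TNF-alpha plus IFN-gamma mixture; protective hits raise ATP signal compared with cytokine alone wells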
[19] = growth suppression of PTEN-null colon cells, dose response, cell-based, HCT116 PTEN knockout (AID 1047); assay type: functional;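 also: HCT116 colon tumor cells with PTEN knocked out; cells exposed to compound for 60 hours before readout; potency for loss of cell viability measured by luminescence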
[20] = test system: Streptococcus; assay: Group A Streptococcus viability loss, dose response, counter-screen for streptokinase expression inhibitor project, luminescence, BacTiterGlo (AID 1915); assay type: functional, organism-based;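 also: potency for reduction of bacterial viability or growth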
[21] = target: Neurotensin receptor type 1 (Homo sapiens, UniProt P30989); assay type: functional;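 also: Image-based confirmatory dose-response assay measuring agonist activity at NTR1; NTR1-expressing U2OS osteosarcoma cells imaged for beta-arrestin GFP spot formation; agonist potency where compounds increase beta-arrestin recruitment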
Neurotensin receptor type 1, sequence (P30989 whole entry): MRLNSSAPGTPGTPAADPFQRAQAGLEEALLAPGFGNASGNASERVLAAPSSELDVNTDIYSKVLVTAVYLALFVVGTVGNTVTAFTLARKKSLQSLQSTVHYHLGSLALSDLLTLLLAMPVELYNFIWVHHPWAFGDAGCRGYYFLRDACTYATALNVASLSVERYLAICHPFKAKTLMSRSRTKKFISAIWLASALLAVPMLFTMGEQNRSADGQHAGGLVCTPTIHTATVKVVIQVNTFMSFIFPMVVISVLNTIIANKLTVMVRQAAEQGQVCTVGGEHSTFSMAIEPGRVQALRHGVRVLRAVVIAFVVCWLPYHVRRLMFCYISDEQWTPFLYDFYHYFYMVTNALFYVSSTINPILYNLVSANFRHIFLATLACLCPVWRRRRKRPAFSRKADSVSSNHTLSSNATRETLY

[22] = inhibitors of SNCA 5'UTR-driven reporter translation, confirmation, H4 neuroglioma cells, luminescence (AID 1988); assay type: functional, cell-based
[23] = cytotoxicity in HEK-293T cells, dose response, cytotoxicity control for TCR NF-kB inhibitor project, luminescence, T-cell screen hits (AID 489026); assay type: functional, cell-based;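 also: cells exposed to compound about 14 hours before the viability readout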
[24] = growth suppression of beta-catenin-knockout colon cells, dose response, cell-based, HCT116, human colon tumor (AID 1045); assay type: functional;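 also: HCT116 colon tumor cells with beta catenin knocked out; cells exposed to compound for 60 hours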
[25] = Luminescence Cell-Based Dose Response HTS to Identify Inhibitors of 5'UTR Stem-Loop Driven Prion Protein mRNA Translation in H4 Neuroglioblastoma Cells. [Related pubchem assays: 1827 (Project Summary), 1813 (Primary HTS)]; assay type: functional
[26] = test system: Streptococcus sp. 'group A'; assay: growth inhibition of control SK(-) GAS strain, dose response, counter-screen for streptokinase expression inhibitor project, luminescence, kanamycin, BacTiterGlo, confirmation (AID 1900); assay type: functional, organism-based
[27] = inhibitors of intracellular T. cruzi replication, confirmation, NIH3T3 host cells, beta-gal luminescence (AID 2044); assay type: functional, cell-based;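 also: intracellular parasites grown in NIH/3T3 mouse fibroblasts as host cells; luminescent beta-galactosidase reporter signal from transgenic T. cruzi replicating inside host cells; inhibitors lower the luminescence signal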
[28] = target: Photoreceptor-specific nuclear receptor (Homo sapiens, UniProt Q9Y5X4); assay type: functional, cell-based;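 also: CHO-S cells with Gal4-NCOR and VP16-NR2E3 two-hybrid luciferase reporter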
Photoreceptor-specific nuclear receptor, sequence (Q9Y5X4 whole entry, the tested form may be a part): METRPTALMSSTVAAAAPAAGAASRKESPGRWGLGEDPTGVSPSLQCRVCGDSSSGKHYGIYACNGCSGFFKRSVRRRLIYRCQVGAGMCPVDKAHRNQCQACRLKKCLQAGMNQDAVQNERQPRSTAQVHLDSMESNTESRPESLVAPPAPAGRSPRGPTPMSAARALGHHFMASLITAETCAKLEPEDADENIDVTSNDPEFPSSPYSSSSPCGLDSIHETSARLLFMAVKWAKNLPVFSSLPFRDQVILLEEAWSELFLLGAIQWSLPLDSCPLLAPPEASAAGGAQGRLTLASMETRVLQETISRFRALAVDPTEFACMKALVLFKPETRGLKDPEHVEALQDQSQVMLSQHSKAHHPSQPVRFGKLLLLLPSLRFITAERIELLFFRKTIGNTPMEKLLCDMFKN

[29] = target: T7, Fatty acid synthase (Homo sapiens, UniProt P49327); assay: FAS thioesterase domain inhibitors, dose response, biochemical, endpoint fluorescence intensity, uHTS hits (AID 624327); assay type: functional;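 also: fluorescence from hydrolysis of an O-methyl fluorescein acyl ester substrate by the enzyme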
T7 sequence (P49327 whole entry, the tested form may be a part): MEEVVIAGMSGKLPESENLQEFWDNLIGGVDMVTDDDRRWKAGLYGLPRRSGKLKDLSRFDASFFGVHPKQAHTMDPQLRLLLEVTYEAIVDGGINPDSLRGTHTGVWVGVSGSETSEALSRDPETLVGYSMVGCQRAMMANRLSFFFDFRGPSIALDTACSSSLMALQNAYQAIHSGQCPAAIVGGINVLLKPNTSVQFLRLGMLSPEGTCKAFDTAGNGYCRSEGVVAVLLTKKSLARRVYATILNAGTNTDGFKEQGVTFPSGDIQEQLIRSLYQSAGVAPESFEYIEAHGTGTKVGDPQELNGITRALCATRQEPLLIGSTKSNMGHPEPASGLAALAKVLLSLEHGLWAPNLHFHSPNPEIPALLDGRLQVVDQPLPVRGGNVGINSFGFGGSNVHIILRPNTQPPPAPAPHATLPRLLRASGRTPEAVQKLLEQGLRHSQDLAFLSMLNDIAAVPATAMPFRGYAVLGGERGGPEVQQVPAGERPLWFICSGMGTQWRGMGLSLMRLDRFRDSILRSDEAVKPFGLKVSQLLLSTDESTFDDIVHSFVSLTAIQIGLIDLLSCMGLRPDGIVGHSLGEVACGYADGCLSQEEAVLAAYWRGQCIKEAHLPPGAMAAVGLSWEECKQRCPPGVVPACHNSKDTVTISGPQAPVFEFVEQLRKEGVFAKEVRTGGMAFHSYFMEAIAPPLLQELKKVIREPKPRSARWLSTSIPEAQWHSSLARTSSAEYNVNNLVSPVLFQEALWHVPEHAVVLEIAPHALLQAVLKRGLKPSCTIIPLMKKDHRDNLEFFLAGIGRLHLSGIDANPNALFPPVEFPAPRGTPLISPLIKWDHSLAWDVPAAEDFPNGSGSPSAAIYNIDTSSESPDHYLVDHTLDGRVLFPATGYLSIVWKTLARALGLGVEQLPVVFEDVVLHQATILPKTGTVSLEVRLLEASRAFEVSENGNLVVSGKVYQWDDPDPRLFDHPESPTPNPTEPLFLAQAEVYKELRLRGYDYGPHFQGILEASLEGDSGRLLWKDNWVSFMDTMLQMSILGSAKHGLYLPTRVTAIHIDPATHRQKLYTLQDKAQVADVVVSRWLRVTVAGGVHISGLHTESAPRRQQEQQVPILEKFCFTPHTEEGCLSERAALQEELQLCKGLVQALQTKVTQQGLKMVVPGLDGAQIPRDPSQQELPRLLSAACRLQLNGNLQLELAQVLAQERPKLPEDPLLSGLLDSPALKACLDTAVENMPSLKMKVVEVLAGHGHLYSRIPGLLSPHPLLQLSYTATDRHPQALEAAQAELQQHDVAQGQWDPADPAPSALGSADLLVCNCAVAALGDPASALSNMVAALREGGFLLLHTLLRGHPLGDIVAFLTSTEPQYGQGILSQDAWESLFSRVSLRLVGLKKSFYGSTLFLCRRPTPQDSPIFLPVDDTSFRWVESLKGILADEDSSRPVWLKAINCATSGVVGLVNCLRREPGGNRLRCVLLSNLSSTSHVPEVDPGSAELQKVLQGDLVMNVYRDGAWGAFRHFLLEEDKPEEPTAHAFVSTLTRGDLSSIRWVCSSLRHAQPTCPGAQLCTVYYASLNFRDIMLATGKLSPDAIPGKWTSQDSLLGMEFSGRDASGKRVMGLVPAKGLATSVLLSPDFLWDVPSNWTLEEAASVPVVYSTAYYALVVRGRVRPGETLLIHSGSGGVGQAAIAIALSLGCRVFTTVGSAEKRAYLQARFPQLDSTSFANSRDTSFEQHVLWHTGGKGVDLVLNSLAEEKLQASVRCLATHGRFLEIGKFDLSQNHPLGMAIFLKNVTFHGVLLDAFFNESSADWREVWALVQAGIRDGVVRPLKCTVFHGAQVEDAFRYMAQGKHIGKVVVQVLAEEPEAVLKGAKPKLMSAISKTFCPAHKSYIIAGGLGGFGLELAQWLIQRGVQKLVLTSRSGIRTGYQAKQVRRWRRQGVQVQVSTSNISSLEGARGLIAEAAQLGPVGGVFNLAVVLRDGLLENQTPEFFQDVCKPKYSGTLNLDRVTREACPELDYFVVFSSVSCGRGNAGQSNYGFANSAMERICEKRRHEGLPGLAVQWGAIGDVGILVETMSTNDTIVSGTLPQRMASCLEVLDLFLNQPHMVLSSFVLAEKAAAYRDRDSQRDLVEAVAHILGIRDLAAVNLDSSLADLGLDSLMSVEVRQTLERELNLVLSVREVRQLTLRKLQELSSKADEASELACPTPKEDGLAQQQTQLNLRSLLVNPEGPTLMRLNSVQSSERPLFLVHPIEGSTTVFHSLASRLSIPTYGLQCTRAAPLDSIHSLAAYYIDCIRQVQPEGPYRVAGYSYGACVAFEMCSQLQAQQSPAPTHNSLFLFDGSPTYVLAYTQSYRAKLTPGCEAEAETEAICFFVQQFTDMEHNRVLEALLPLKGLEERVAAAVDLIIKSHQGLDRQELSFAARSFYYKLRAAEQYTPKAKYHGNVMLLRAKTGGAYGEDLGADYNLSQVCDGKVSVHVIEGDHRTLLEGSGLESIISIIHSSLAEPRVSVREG

[30] = target: T7, Fatty acid synthase; assay: FAS thioesterase domain inhibitors, dose response, biochemical, kinetic fluorescence intensity (AID 624326); assay type: functional;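 also: rate of fluorescence rise from hydrolysis of a fluorogenic O-methyl fluorescein ester substrate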
[31] = cytotoxicity toward NIH3T3 fibroblasts, dose response, counter-screen, cell-based, ATP luminescence, mouse fibroblasts (AID 2010); assay type: functional;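 also: cells exposed to compound for about 90 hours before reading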

## CC(=O)Nc1ccc(-c2csc(NC(=O)Nc3ccccc3)n2)cc1
[1]
  IC50: 38.3 µM (inactive)
[2]
  EC50: > 89.2 µM (inactive)

## CCn1cc(C(=O)O)c(=O)c2cc(F)c(N3CCN(C(=S)NC(=O)c4cccc(F)c4)CC3)cc21
[3]
  IC50: 8.61 µM (active)

## CCOC(=O)C(C)Sc1nnc(Cc2cc(O)nc(O)n2)n1-c1ccc(Cl)cc1 (stereo unspecified)
[4]
  IC50: > 66 µM (inactive)
[5]
  IC50: > 66 µM (inactive)

## Cn1ccc2c(-c3ccc(F)nc3)cc3c(c21)C1CCC3C1 (stereo unspecified)
[6]
  EC50: 10.6 µM (active)

## Nc1nnc2cc(Br)ccc2n1
[4]
  IC50: 35.7 µM (inactive)
[5]
  IC50: > 66 µM (inactive)

## C#CCOCCOCCOCCNc1nc(N2CCN(C(=O)CCCCCCCCCCNC(=O)[C@H]([C@@H](C)CC)n3cc(CCCCCN)nn3)CC2)nc(N2CCN(C(=O)CCCCCCCCCCNC(=O)[C@H](CO)n3cc(CCCCCN)nn3)CC2)n1
[7]
  IC50: 25 µM (active)
[8]
  EC50: > 6.08 µM (active)
[9]
  EC50: > 56 µM (inactive)
[10]
  IC50: 4.22 µM (active)
[11]
  IC50: > 20 µM (inactive)
[12]
  IC50: 2.64 µM (active)
[13]
  IC50: 9.37 µM (active)
[14]
  EC50: 9.67 µM (active)

## CCCOc1ccc(C(=O)NC(=S)N2CCN(c3ncc4c(=O)c(C(=O)O)cn(CC)c4n3)CC2)cc1
[3]
  IC50: 9.82 µM (active)

## COc1cc(OC)c(OC)cc1/C=N/NC(=O)c1ccc(=O)n(C)c1
[15]
  IC50: 102 µM (inactive)

## COc1ccc(Cn2c(SCc3ccc(C)cc3)nc3cc(OC)c(OC)cc3c2=N)cc1Cl
[16]
  EC50: 5.92 µM (active)
[17]
  EC50: > 120 µM (not active)
[18]
  AC50: 3.85 µM (active)
[19]
  EC50: 3.54 µM (active)
[8]
  EC50: 15.5 µM (inactive)
[9]
  EC50: > 54.7 µM (inactive)
[20]
  EC50: 8.22 µM (active)
[21]
  EC50: 5.35 µM (active)
[22]
  EC50: > 120 µM (not active)
[23]
  IC50: > 80 µM (inactive)
[24]
  EC50: 3.32 µM (active)
[25]
  EC50: > 120 µM (not active)
[13]
  IC50: 15.9 µM (inactive)
[26]
  EC50: 2.52 µM (active)
[14]
  EC50: > 54.7 µM (inactive)

## CCc1cccc2sc(N3CCN(C(=O)c4ccc([N+](=O)[O-])o4)CC3)nc12
[27]
  EC50: 307 nM (active)
[16]
  EC50: 2.38 µM (active)
[28]
  IC50: 4.71 µM (active)
[29]
  IC50: 13.3 µM (active)
[30]
  IC50: 12.9 µM (active)
[20]
  EC50: 12.1 µM (active)
[31]
  EC50: 5.4 µM (active)
[26]
  EC50: 5.99 µM (active)
